Test results: patent publication US5552156A, “Liposomal and micellular stabilization of camptothecin drugs” (Ohio State University, priority 1995, dated 1996)
Counter-ions that a name gives are not always drawn.

Legend:
Format in all cases: physicochemical
[1] = Fluorescence excitation and emission spectra of camptothecin drugs free in solution and bound to liposomes
Source text: The camptothecin drugs are intrinsically intensely fluorescent. Fluorescence is associated with the extended conjugation of the quinoline ring system. The liposomes of Examples 1-7 were characterized for the presence of the camptothecin drugs, using excitation and emission spectrography, and fluorescence anisotropy.
(§1) Steady-state fluorescence measurements were obtained on a SLM Model 4800C. spectrofluorometer with a thermostated cuvette compartment. This instrument was interfaced with an IBM PS/2 model 55 SX computer. Excitation and emission spectra were recorded with an excitation resolution of 8 nm and an emission resolution of 4 nm. In all cases spectra were corrected for background fluorescence and scatter from unlabeled lipids or from solvents by subtraction of the spectrum of a blank. Steady-state fluorescence intensity measurements were made in the absence of polarizer. Steady-state anisotropy (a) measurements were determined with the instrument in the "T-format" for simultaneous measurement of two polarized intensities. The alignment of polarizers were checked routinely using a dilute suspension of 0.25 μm polystyrene microspheres from Polysciences, Inc, Warrington, Pa., in water; anisotropy values of >0.99 were obtained. The anisotropy was calculated from a=(Ivv -GlVH)/(Ivv +GIVH), where G-IVH /IHH and the subscripts refer to vertical and horizontal orientations of the excitation and emission polarizers, respectively.
(§2) Anisotropy measurements for camptothecin, camptothecin carboxylate sodium salt, and 10,11-methylenedioxycamptothecin were conducted using exciting light of 370 nm and 420 nm long wave pass filters on each emission channel in order to isolate the fluorescence signal from background scatter and signal. For topotecan a 400 nm excitation wavelength and a 500 nm emission filter were used and for 9-aminocamptothecin a 375 nm excitation and a wavelength 420 nm emission filter were used. For AMC and CMC, a 370 nm excitation wavelength and a 400 nm emission filter were used. For 10-hydroxycamptothecin 375 nm excitation wavelength 500 nm emission filter was used. Emission filters were obtained from Oriel Corp. Stamford, Conn. The combination of exciting light and emission filters allows one to adequately separate the fluorescence from the background signal. The contribution of background fluorescence, together with scattered light, was typically less than 1% of the total intensity. Since the lactone ring of the camptothecin drug undergoes hydrolysis in aqueous medium, all measurements were completed within the shortest possible time, less than 1 minute after mixing the drug stock solution with PBS or the liposomes. In each case, analysis was initiated immediately after mixing the drug stock solution with PBS or with the liposomes. All measurements were performed at 37° C. unless otherwise noted.
The relative fluorescence intensity of 1×10^-6 M of camptothecin free in PBS buffer at 37° C. is shown. The emission spectra of the camptothecin was recorded using exciting light of 370 nm.
An exciting light of 390 nm was used to record the emission spectra of topotecan. A decrease in the emission intensity is observed for topotecan associated with the DMPG liposome.
All spectra were recorded using camptothecin drug concentrations of 2
μM. The DMPC and DMPG concentrations were 0.29 M. Experiments were
conducted in PBS buffer at 37° C.
Also found in Table II is a relative index of the emission intensity levels from these camptothecin drugs in PBS at their respective excitation and emission λMAX.

[2] = Steady-state fluorescence anisotropy in solvents and liposomes; conditions: for steady-state anisotropy (a), DMPC: DMPC liposomes
Procedure: as §1, §2
(§3) While the spectral changes provide qualitative evidence that the camptothecin drugs bind the liposome membranes, fluorescence anisotropy titration, offers the most sensitive means for quantitatively assessing the extent of the binding. The fluorescence anisotropy titration was performed according to the method of Burke and Tritton, Biochemistry 24: 1768-1776 (1985).
A steady-state fluorescence anisotropy (a) measurement is related to the rotational rate of the fluorescent molecule through the Perrin Equation: […]
where a0 is the limiting fluorescence anisotropy value, that is, the anisotropy value in the absence of depolarizing rotations, T is the excited-state lifetime, and .phi. is the rotational correlative time of the fluorophore. According to Equation 1, changes in either the T or .phi. values of a fluorescent compound can modulate its steady-state anisotropy.
The limiting fluorescence anisotropy (a0) values were also measured. The maximum values of (a) were obtained by dissolving the camptothecin drugs in the viscous solvent glycerol and cooling the samples to low temperatures. Steady-stated anisotropy (a) values were determined for samples containing 1 μM drug at 37° C.
Where the solvent viscosity is high and temperature is low, depolarizing rotations are at a minimum. By extrapolating these (a) values to -25° C., the limiting anisotropy values (a0) for the camptothecin drugs, were determined. […]

[3] = HPLC assay of lactone ring hydrolysis, free in PBS or associated with liposomes or micelles; conditions: for carboxylate/lactone ratio (C/L) free drug: final equilibrium; for carboxylate/lactone ratio (C/L) free drug / t1/2 free drug: free in PBS, pH 7.4, 37° C.; for t1/2 free drug: lactone hydrolysis
Procedure: A high performance liquid chromatography assay was used to determine the rate of hydrolysis of camptothecin and topotecan free in aqueous solution and to compare such rates with the rate of hydrolysis for the same drugs when bound to the DMPG and DMPC liposome membranes. The assay was conducted under near physiological conditions; the pH was 7.4, the temperature was 37° C. and the ionic strength was physiological. A Spectroflow model 980 fluorescence detector coupled to an HP 3392A integrator which acquired and processed the chromatograms, was used. For camptothecin, an Ultrasphere ODS C-18 250 mm long column was used. The mobile phase consisted of 32% acetonitrile, 67% 0.1M acetate buffer, pH 5.5, and 1% 01.M sodium dodecylsulfate at a flow rate of 1 mL/min. The detector was set to 370 nm excitation wavelength and a 418 nm long pass emission filter. A 1 μM solution of camptothecin in PBS was prepared and incubated at 37° C. Immediately after mixing the drug stock solution with PBS and at intervals of 5 min thereafter, 50 μL aliquots were taken out and mixed with 150 μL methanolic internal standard, 9-toluoylamidocamptothecin and either analyzed immediately or kept cold under dry ice. 150 μL of this mixture was diluted with 125 μL water and 200 μL was injected. The ratio of the peak areas corresponding to the intact lactone form of the camptothecin drug and the internal standard at a particular time was normalized to that at the time of mixing and was considered as the concentration of the intact lactone form.
For topotecan the excitation wavelength was 362 nm and the emission was observed through a 470 long wave pass filter. The stationary phase was Waters Nova-Pak C-18 150mm long column. The mobile phase consisted of 500 mL 0.1M KH2 PO4, 550 mL acetonitrile, 4.2 mL triethylamine (distilled over molecular sieves), 4.44 g sodium dioctylsulfosuccinate (DOSS), and 970 ml water. The pH was adjusted to 6.0 with H3 PO4. Internal standard solution contained 50×10^-9 g acridine from Eastman and 20×10^-3 M DOSS in methanol and was always kept cold at ≤-20° C. Next 150 μL or cold internal standard solution was mixed with 50 μL aliquot containing topotecan, centrifuged for 1 minute and the supernatant was either analyzed immediately or stored at -20° C. for analysis at a later time, within 2 hours. Samples were monitored at time points from 0 minutes, that is, immediately following dissolution, up to 72 hours.
The kinetics of lactone ring hydrolysis for free camptothecin, CMC and topotecan are shown in of FIGS. 7a, 7b and 7c. Analysis of the decay profile for camptothecin, CMC and topotecan free in PBS was accomplished using a nonlinear least squares program.

[4] = Overall association constant by fluorescence anisotropy titration, DMPC liposomes
Procedure: as §3
The concentrations of free camptothecin drugs and camptothecin drugs associated with liposomes were determined at various lipid concentrations. All experiments were conducted in glass tubes pretreated with a silating agent, Surfacil, from Pearce Chemical, Rockford, Ill. The titration was conducted at camptothecin drug concentration of 1×10^-6 M in PBS at 37° C. Anisotropy values at each lipid concentration were determined within less than 30 seconds following the addition of the camptothecin drugs to the liposome suspension. The (a) values were determined for fixed drug concentration, typically 2 μM, while the lipid concentration was varied from 0 to 0.29M. By varying the lipid concentration rather than varying the drug concentration, the problem of self-association phenomenon which occurs for camptothecin drugs concentrations in excess of 10 μM is avoided. Also, the well-known phenomenon known as inner filter effect which occurs using fluorescent material at high optical densities is a is avoided.
Adsorption isotherms like those shown in FIGS. 4A and 4B were used to determine overall association constants for the camptothecin drugs. Overall association constants are defined as: […]
where [AB ] represents the concentration of the camptothecin drug bound to the vesicle membrane, [AF ] represents the concentration of free drug, and [L] represents the total lipid concentration in the liposome suspension. This equation is valid when the concentration of free lipid is approximately equal to the concentration of total lipid, that is, the concentration of free lipid is in great excess over the concentration of bound drug. Provided this concentration is satisfied, K may be determined from the inverse of the slope of a double reciprocal plot according to (Burke and Tritton, Biochemistry 24:1776, 1985). In such a plot, 1/bound fraction of the total camptothecin drug is plotted vs. 1/[lipid], with a y-intercept value of 1.
FIG. 6A is the double-reciprocal plot for the associations of CMC, camptothecin, camptothecin carboylate sodium salt and topotecan with DMPC at 37° C.
The stabilization of camptothecin drugs was determined using different lipids. Three types of lipids (and thus 3 types of membranes) were examined: fluid-phase and electroneutral L-α-dimyristoylphosphatidylcholine (DMPC); fluid-phase and negatively-charged L-α-dimyristoylphosphatidylglycerol (DMPG), and solid-phase and electroneutral L-α-distearoylphosphatidylcholine (DSPC). While DMPC and DMPG have identical chain length, the charge on their head groups differ. DMPC and DSPC have identical head groups, but DMPC has acyl chains having 14 carbons per chain, which are four carbons shorter than the DSPC, which has 18 carbons per chain. This difference of 4-carbon chain length results in DMPC being fluid-phase at 37° C. while DSPC is solid-phase. The 7 camptothecin drugs listed in Table III were combined with liposomes containing the above lipids.
FIGS. 4A and 4B show the extent of camptothecin drug binding to liposomes as a function of lipid concentration for DMPC and DMPG liposomes. DMPC liposomes were made as in Example 1, at lipid concentrations from 0 to 0.29M, using CMC, 10-hydroxycamptothecin, 10,11-methylenedioxy-camptothecin, topotecan, camptothecin, and camptothecin carboxylate sodium salt, as shown in FIG. 4B. DMPG liposomes were made as in Example 2, at lipid concentrations from 0 to 0.29M, using 9-chloro-10,11-methylenedioxycamptothecin CMC, 10,11-methylenedioxycamptothecin, camptothecin, and topotecan, 9-aminocamptothecin, as shown in FIG. 4A. […]

[5] = in PBS, pH 7.4, at excitation and emission λMAX

SMILES: CCC1(O)C(=O)OCc2c1cc1n(c2=O)Cc2cc3c(N)c4c(cc3nc2-1)OCO4 (centres unmarked) [9-amino-10,11-methylenedioxycamptothecin]
- emission maxima as the pH is decreased ([1]; 2 μM, excitation 370 nm, decreased pH): 430 nm
- shift of emission maxima upon decrease of pH / protonation ([1]; free in PBS): about 120 nm
- λMAX emission, PBS ([1]; free in PBS, pH 7.4, 37° C.): 550 nm
- Relative Fluorescence [1, 5]: 0.001
- λMAX excitation ([1]; pH 1.5): 373 nm
- Relative Fluorescence ([1]; pH 1.5, PBS): 0.06
- λMAX emission, PBS ([1]; pH 1.5, free in PBS): 430 nm
- λMAX excitation ([1]; pH 7.4, 2 μM drug, PBS, 37° C.): 404 nm
- steady-state anisotropy (a), DMPC ([2]; pH 2, 37° C.): 0.160
- steady-state anisotropy (a), PBS ([2]; pH 3, 37° C.): 0.049
- lactone hydrolysis when associated with liposomes ([3]; DMPC and DMPG liposomes): some hydrolysis occurred at 1 hour
- lactone ring hydrolysis at 5 hours ([3]; DMPG or DMPC liposomes, 5 hours): ≤ 40%
- carboxylate/lactone ratio (C/L) free drug [3]: 5.1
- t1/2 free drug [3]: 26.9 min

SMILES: CCC1(O)C(=O)OCc2c1cc1n(c2=O)Cc2cc3c([N+](=O)[O-])cccc3nc2-1 (centres unmarked) [9-nitrocamptothecin]
- reduction in emission intensity levels relative to camptothecin ([1]; free in PBS, pH 7.4): 1000 -fold
- λMAX emission, PBS ([1]; free in PBS, pH 7.4, 37° C.): 456 nm
- Relative Fluorescence [1, 5]: 0.001
- λMAX excitation ([1]; pH 7.4, 2 μM drug, PBS, 37° C.): 378 nm
- carboxylate/lactone ratio (C/L) free drug [3]: 7.5
- t1/2 free drug [3]: 23.8 min

SMILES: CCC(O)(C(=O)O)c1cc2n(c(=O)c1CO)Cc1cc3ccccc3nc1-2 (centres unmarked) [camptothecin carboxylate, camptothecin carboxylate sodium salt]
- λMAX emission, DMPC ([1]; DMPC liposomes 0.29 M, pH 7.4, 37° C.): 437 nm
- λMAX emission, DMPG ([1]; DMPG liposomes 0.29 M, pH 7.4, 37° C.): 435 nm
- λMAX emission, PBS ([1]; free in PBS, pH 7.4, 37° C.): 443 nm
- Relative Fluorescence [1, 5]: 1
- λMAX excitation ([1]; pH 7.4, 2 μM drug, PBS, 37° C.): 377 nm
- steady-state anisotropy (a), DMPC ([2]; 37° C., 1/a vs. 1/[lipid] plot): 0.102
- steady-state anisotropy (a), PBS ([2]; 1 μM drug, 37° C.): 0.008
- limiting fluorescence anisotropy a0 ([2]; extrapolated to -25° C., glycerol): 0.377
- steady-state anisotropy (a), glycerol ([2]; glycerol, 1 μM drug, 37° C.): 0.327
- steady-state anisotropy (a), octanol ([2]; octanol, 1 μM drug, 37° C.): 0.073
- overall association constant K, DMPC ([4]; DMPC (electroneutral, fluid phase), PBS, 37° C.): 40 M⁻¹
- reduction in binding to DMPC liposomes upon hydrolysis to carboxylate ([4]; relative to camptothecin): three-fold reduction
